Laboratory results from paper PMC9090415, “Discovery of small molecule inhibitors of Plasmodium falciparum apicoplast DNA polymerase” (Journal of Enzyme Inhibition and Medicinal Chemistry, 2022).

Target: P. falciparum apicoplast DNA polymerase (Pf-apPOL) (Plasmodium falciparum, UniProt Q8ILY1)
Assay: Fluorescence-based high-throughput DNA polymerase assay (molecular beacon), primary screen and dose-response;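 on % inhibition ApPOL 90': test concentration in µM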;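 on % inhibition apPOL 180': test concentration in µM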
Type: biochemical
Details: for DNA Pol: 90 min, 10 µM; for % inhibition Apo pol 5': DRC-2, 5'
How it was run: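 Single-point screening used 10 µM compound with 20 nM polymerase, 20 nM hairpin substrate and 6 µM dNTPs for 90 min at 25 °C. Confirmatory titrations (2.5–80 µM) followed fluorescence at three times, and IC50 was derived from a fit including a cooperativity term n.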

Chain of P. falciparum apicoplast DNA polymerase (Pf-apPOL) (Q8ILY1 entry or part of it): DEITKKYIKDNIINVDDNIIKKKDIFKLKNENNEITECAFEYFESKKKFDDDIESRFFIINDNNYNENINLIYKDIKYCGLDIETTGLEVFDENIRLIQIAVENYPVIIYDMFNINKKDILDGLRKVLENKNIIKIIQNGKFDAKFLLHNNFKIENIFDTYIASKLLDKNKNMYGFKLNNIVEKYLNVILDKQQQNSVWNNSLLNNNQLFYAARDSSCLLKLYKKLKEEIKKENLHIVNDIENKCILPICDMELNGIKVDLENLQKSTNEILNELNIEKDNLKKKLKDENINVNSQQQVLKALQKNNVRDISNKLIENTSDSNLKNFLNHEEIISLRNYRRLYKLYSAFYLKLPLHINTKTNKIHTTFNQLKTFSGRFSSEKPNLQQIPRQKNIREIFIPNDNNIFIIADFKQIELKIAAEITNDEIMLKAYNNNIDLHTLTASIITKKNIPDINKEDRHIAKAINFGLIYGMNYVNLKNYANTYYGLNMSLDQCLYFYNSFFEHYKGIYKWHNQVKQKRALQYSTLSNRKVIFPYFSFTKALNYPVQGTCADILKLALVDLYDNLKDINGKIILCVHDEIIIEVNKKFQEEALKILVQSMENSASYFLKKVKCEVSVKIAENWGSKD

In the case of `O=C(c1c[nH]c2ncccc12)N1CCCCCC1` [Molecule 51, O=C(c1c[nH]c2c1cccn2)N1CCCCCC1], the “DNA Pol” value ('DNA Pol', screening value, unit not given) is reported as 25, the “% inhibition Apo pol 10'” value (DRC-1, concentration 2.5) is reported as 0.9621% and the “% inhibition Apo pol 10'” value (DRC-1, concentration 5) is reported as 3.05%. The “% inhibition Apo pol 10'” value (DRC-1, concentration 10) was 7.159%, the “% inhibition Apo pol 10'” value (DRC-1, concentration 20) was 44.6815% and the “% inhibition Apo pol 10'” value (DRC-1, concentration 40) was 69.4342%. For the same molecule, the “% inhibition Apo pol 10'” value (DRC-1, concentration 80) was 66.9665%, the “% inhibition Apol 90'” value (DRC-1, 90', concentration 2.5) was 1.194% and the “% inhibition Apol 90'” value (DRC-1, 90', concentration 5) was 0.544%. The “% inhibition Apol 90'” value (DRC-1, 90', concentration 10) was 3.081%, the “% inhibition Apol 90'” value (DRC-1, 90', concentration 20) was 31.7125% and the “% inhibition Apol 90'” value (DRC-1, 90', concentration 40) was 60.4317%. For the same molecule, the “% inhibition Apol 90'” value (DRC-1, 90', concentration 80) was 59.6767%, the “% inhibition apPOL 180'” value (DRC-1, 180', concentration 2.5) was -0.2836% and the “% inhibition apPOL 180'” value (DRC-1, 180', concentration 5) was -4.489%. The “% inhibition apPOL 180'” value (DRC-1, 180', concentration 10) was -1.621%, the “% inhibition apPOL 180'” value (DRC-1, 180', concentration 20) was 18.2058% and the “% inhibition apPOL 180'” value (DRC-1, 180', concentration 40) was 46.8298%. For the same molecule, the “% inhibition apPOL 180'” value (DRC-1, 180', concentration 80) was 46.9776%, the “% inhibition Apo pol 5'” value (concentration 2.5) was 0.781% and the “% inhibition Apo pol 5'” value (concentration 5) was 2.7%. The “% inhibition Apo pol 5'” value (concentration 10) was 24%, the “% inhibition Apo pol 5'” value (concentration 20) was 38% and the “% inhibition Apo pol 5'” value (concentration 40) was 34%. The “% inhibition Apo pol 5'” value (concentration 80) was 36%, the “% inhibition Apol 40'” value (DRC-2, 40', concentration 2.5) was 4% and the “% inhibition Apol 40'” value (DRC-2, 40', concentration 5) was 4.4%. For the same molecule, the “% inhibition Apol 40'” value (DRC-2, 40', concentration 10) was 28%, the “% inhibition Apol 40'” value (DRC-2, 40', concentration 20) was 47% and the “% inhibition Apol 40'” value (DRC-2, 40', concentration 40) was 45%. The “% inhibition Apol 40'” value (DRC-2, 40', concentration 80) was 61%, the “% inhibition ApPOL 90'” value (DRC-2, 90', concentration 2.5) was 2.81% and the “% inhibition ApPOL 90'” value (DRC-2, 90', concentration 5) was 3.55%. For the same molecule, the “% inhibition ApPOL 90'” value (DRC-2, 90', concentration 10) was 25%, the “% inhibition ApPOL 90'” value (DRC-2, 90', concentration 20) was 46% and the “% inhibition ApPOL 90'” value (DRC-2, 90', concentration 40) was 45%. For the same molecule, the “% inhibition ApPOL 90'” value (DRC-2, 90', concentration 80) was 68%, the “% inhibition apPOL 180'” value (DRC-2, 180', concentration 2.5) was -1% and the “% inhibition apPOL 180'” value (DRC-2, 180', concentration 5) was -0.742%. For the same molecule, the “% inhibition apPOL 180'” value (DRC-2, 180', concentration 10) was 17%, the “% inhibition apPOL 180'” value (DRC-2, 180', concentration 20) was 37% and the “% inhibition apPOL 180'” value (DRC-2, 180', concentration 40) was 35%. The “% inhibition apPOL 180'” value (DRC-2, 180', concentration 80) was 72%, the “% inhibition Apol 40'” value (conc 40 (unit not given), 40', DRC-2) was 45% and the “% inhibition ApPOL 90'” value (conc 40 (unit not given), 90', DRC-2) was 45%. The “DNA Pol” value (primary screen hit value, DNA Pol (186 hits)) was 25.
